US4551547A, “Biocidal 2-aryl-1, 3-cyclopentanedione enol ester compounds” (Union Carbide Corporation, priority 1983, dated 1985)
Converted amounts (≈) assume the structure as drawn.

Tests used:
[1] = tested on: two-spotted mite (adults and nymphal stages); test: Mite Foliage Spray Test (adults and nymphs); format: in vivo, Tetranychus urticae (Koch); parameters: key to Miticidal, Adult: A: Excellent Control; B: Partial Control; No Control; conditions: for Miticidal, Adult: Table II, mortality count after four days; for LC50: Tetranychus urticae, foliar, Table III, ppm required for a 50 percent kill of mites, read-out: Miticidal LD50, Adult
Description: Suspensions of the test compounds were prepared by dissolving one gram of compound in 50 milliliters of acetone in which had been dissolved 0.1 gram (10 percent of the weight of compound) of an alkylphenoxyethanol sufactant, as an emulsifying or dispersing agent. The resulting solution was mixed into 160 milliliters of water to give roughly 200 milliliters of a suspension containing the compound in finely divided form. The thus prepared stock suspension contained 0.5 percent by weight of compound. The test concentrations employed in the tests described below were obtained by diluting the stock suspension with water. The test procedures were as follows: Adults and nymphal stages of the two-spotted mite (Tetranychus urticae (Koch)), reared on Tender-green beam plants at 80±5° F. and 50±5 percent relative humidity, were the tests organisms. Infested leaves from a stock culture were placed of the primary leaves of two bean plants six to eight inches in height, growing in a two-and-a-half inch clay pot. 150-200 Mites, a sufficient number for testing, transferred from the excised leaves to the fresh plants in a period of twenty-four hours. Following the twenty-four hour transfer period, the excised leaves were removed from the infested plants. The test compounds were formulated by diluting the stock suspension with water to provide suspensions containing the desired amount of test compound per million parts of final formulation. The potted plants (one pot per compound) were placed on a revolving turntable and sprayed with 100-110 milliliters of tests compound formulation by use of a DeVilbis spray gun set at 40 psi, air pressure. This application, which lasted 30 seconds, was sufficient to wet the plants to run-off. As a control, 100-110 milliliters of a water solution containing acetone and emulsifier in the same concentrations as the test compound formulation, but containing no test compound, were also sprayed on infested plants. The sprayed plants were held at 80±5° F. and 50±5 percent relative humidity for four days, after which, a mortality count of motile forms was made on the leaves of the test plants. Any individual which was capable of locomotion upon prodding was considered living. In these tests the pesticidal activity of the compounds against mites and mite eggs was rated as follows: Tests were conducted in accordance with the procedures given at pages 17 to 21 supra. The results are expressed in the same manner as used in Table II, except with respect to miticidal activity. For mite adult and mite egg comparison purposes, results are given in parts per million (ppm) required for a 50 percent kill of mites or eggs, respectively.

[2] = tested on: Cotton; test: Post-emergent herbicidal test, cotton; format: in vivo; parameters: key: 1: no perceptible injury; 2: intermediate degrees of injury; 3: intermediate degrees of injury; 4: intermediate degrees of injury; 5: the plant was dead; conditions: 2500 parts per million, after ten days; for Post-emergent Herbicidal, Cotton: Table II; for Post Emergent Herbicidal, Cotton: Table III
Description: (§1) Suspensions of the test compounds were prepared by dissolving one gram of compound in 50 milliliters of acetone in which had been dissolved 0.1 gram (10 percent of the weight of compound) of an alkylphenoxyethanol sufactant, as an emulsifying or dispersing agent. The resulting solution was mixed into 160 milliliters of water to give roughly 200 milliliters of a suspension containing the compound in finely divided form. The thus prepared stock suspension contained 0.5 percent by weight of compound. The test concentrations employed in the tests described below were obtained by diluting the stock suspension with water. The test procedures were as follows:
(§2) Experiments were also conducted to determine the phytotoxicity of representative compositions with respect to healthy fresh plants. Solutions of the compounds were prepared as described above to provide a concentration of 2500 parts per million of the test compound. The test plants were sprayed in accordance with the procedure described above for the Mite Foliage Spray Test so as to deliver approximately 100 milliliters of test solutions to the leaves of each plant tested. The sprayed plants and controls were set aside for approximately one hour to allow the solutions to dry and were then placed in the greenhouse. After ten days the plants were visually inspected to determine the extent of foliage injury. A rating of 1 indicates no perceptible injury; 5 indicates the plant was dead and ratings of 2, 3 and 4 indicate intermediate degrees of injury based upon the number and extent to which leaves were injured.

[3] = tested on: Perennial rye grass; test: Preliminary herbicide seed germination test (pre-emergent), perennial rye grass; format: in vivo, Solium perenne; parameters: key: 5: no seedling emerged; 4: few seedlings emerged and/or very severe stunting; 3: moderate reduction in stand and/or moderate stunting.; 2: very slight reduction in stand and/or slight stunting; 1: no injury, seedlings appear no different with respect to stand or growth than untreated controls; conditions: ten to twelve days after application
Description: as §1
The following seeds were used in this test:
Perennial rye grass--Solium perenne
Two […] mixtures were prepared as follows:
Each of the above mixtures was rolled separately in 5 gallon containers for approximately one-half hour on ball mill to insure uniform mixing of seeds and soil. For each compound four 3-inch pots were filled with soil to within 11/2 inches of top of pots. To two of these pots were added 70 cc. of Mixture I. To the remaining 2 pots were added 70 cc. of Mixture II. The seed-soil mixture was tamped firmly, and the pots were removed to the greenhouse and watered lightly. About 2 hours after planting, 25 milliliters of the test formulation were added to one pot containing Mixture I and one pot containing Mixture II. An equal volume of a water solution containing acetone and an emulsifier in the same concentration as the herbicidal mixture but without the candidate herbicide was also added to each of the soil-seed mixtures. These pots are used as check or control units. The test compounds were formulated by diluting the stock suspension with water to obtain the desired concentration of the compound in parts per million of the final formulation. Each compound was tested at the same concentration. […] Ratings were made according to the following designations: […]

[4] = tested on: Corn; test: Post-emergent herbicidal test, corn; format: in vivo; parameters: key: 1: no perceptible injury; 2: intermediate degrees of injury; 3: intermediate degrees of injury; 4: intermediate degrees of injury; 5: the plant was dead; conditions: 2500 parts per million, after ten days; for Post-emergent Herbicidal, Corn: Table II; for Post Emergent Herbicidal, Corn: Table III
Description: as §1, §2

Structure (SMILES)	Miticidal, Adult [1]	Post-emergent Herbicidal, Cotton [2]	Pre-emergent Herbicidal, Rye ([3]; Table II)	Post-emergent Herbicidal, Corn [4]	LC50 [1] [µg/mL]	Post Emergent Herbicidal, Cotton [2]	Pre-emergent Herbicidal, Rye ([3]; Table III)	Post Emergent Herbicidal, Corn [4]
CC(=O)OC1=C(c2cc(C)ccc2C)C(=O)C(C)C1 (stereo not shown) [Compound 15]	A	2	4	3	–	–	–	–
CCCCCCCCCC(=O)OC1=C(c2cc(C)ccc2C)C(=O)C2CCCCC12 (stereo not shown) [drawing 19]	–	–	–	–	25 (≈ 60.9 µM)	1	1	2
Cc1ccc(C)c(C2=C(OC(=O)C(C)C)CCC2=O)c1 [Compound 12]	B	3	1	2	–	–	–	–
CC(=O)OC1=C(c2cc(C)ccc2C)C(=O)C2CCCCC12 (stereo not shown) [Compound 28]	A	1	3	3	–	–	–	–
Cc1ccccc1C1=C(OC(=O)C(C)(C)C)C2CCCCC2C1=O (stereo not shown) [drawing 24]	–	–	–	–	15 (≈ 46 µM)	3	5	5
CCCCCCCCCC(=O)OC1=C(c2ccccc2C)C(=O)C2CCCCC12 (stereo not shown) [Compound 23]	A	3	5	5	–	–	–	–
CCCCCCCCCCCCCCCC(=O)OC1=C(c2cc(C)ccc2C)C(=O)CC1 [Compound 14]	A	3	4	1	–	–	–	–
CC(=O)OC1=C(c2ccc(C)cc2C)C(=O)C2CCCCC12 (stereo not shown) [Compound 25]	A	3	5	3	–	–	–	–
CCCCC(CC)C(=O)OC1=C(c2ccccc2C)C(=O)CC1 (stereo not shown) [drawing 21]	–	–	–	–	220 (≈ 700 µM)	2	5	2
CCCCCCCCCCCCCCCC(=O)OC1=C(c2ccccc2C)C(=O)C2CCCCC12 (stereo not shown) [Compound 24]	A	2	4	2	–	–	–	–
CCCCC(CC)C(=O)OC1=C(c2ccccc2C)C(=O)C2CCCCC12 (stereo not shown) [Compound 21, 3-(2-Ethylhexanoyloxy)-2-(2'-methylphenyl)-4,5,6,7,8,9-hexahydro-2-indenone]	A	2	3	5	–	–	–	–
CCCCC(CC)C(=O)OC1=C(c2cc(C)ccc2C)C(=O)CC1 (stereo not shown) [Compound 13]	A	3	1	2	–	–	–	–
Cc1ccccc1C1=C(OC(=O)C(C)(C)C)C2CCCCC2C1=O (stereo not shown) [Compound 22]	A	3	5	5	–	–	–	–
CCCCCCCCCCCCCCCC(=O)OC1=C(c2ccc(Cl)cc2Cl)C(=O)CC1 [Compound 6]	A	1	1	1	–	–	–	–
CCCCCCCCCC(=O)OC1=C(c2ccccc2C)C(=O)C2CCCCC12 (stereo not shown) [drawing 15]	–	–	–	–	2 (≈ 5.04 µM)	3	5	5
CCCCC(CC)C(=O)OC1=C(c2ccc(C)cc2C)C(=O)C2CCCCC12 (stereo not shown) [Compound 26, 3-(2-ethylhexanoyloxy)-2-(2',4'-dimethylphenyl)-4,5,6,7,8,9-hexahydro-2-indenone]	A	2	5	5	–	–	–	–
Cc1ccc(C)c(C2=C(OC(=O)C(C)C)CC(C)C2=O)c1 (stereo not shown) [Compound 16]	B	3	3	3	–	–	–	–
CCCCCCCCCC(=O)OC1=C(c2cc(C)ccc2C)C(=O)c2ccccc21 [reference compound]	–	–	–	–	500 (≈ 1240 µM)	1	1	1
O=C1CCC(OC(=O)c2ccccc2)=C1c1ccccc1Cl [Compound 2]	A	2	4	3	–	–	–	–
Cc1ccc(C)c(C2=C(OC(=O)C(C)(C)C)C3CCCCC3C2=O)c1 (stereo not shown) [Compound 31]	A	1	1	2	–	–	–	–
Cc1ccc(C)c(C2=C(OC(=O)C(C)C)C3CCCCC3C2=O)c1 (stereo not shown) [Compound 29]	A	2	1	2	–	–	–	–
Cc1ccccc1C1=C(OC(=O)C(C)(C)C)c2ccccc2C1=O [reference compound]	–	–	–	–	100 (≈ 312 µM)	1	2	1
